Assay results: US20220364056A1, “SHORT-CHAIN FATTY ACID PENTANOATE AS ENHANCER FOR CELLULAR THERAPY AND ANTI-TUMOR THERAPY” (PHILIPPS-UNIVERSITÄT MARBURG, priority 2019, published 2022)

Experiments:
mTOR [1] = assay: phosphorylation of mTOR and S6 in human CTLs; format: cell-based; settings: three days
Protocol: (§1) (A and B) CTLs were cultured in medium containing 1.0% FCS and treated with pentanoate (2.5 mM) for three days. Representative histogram plots and bar graphs indicate the phoshorylated levels of mTOR (A) and S6 ribosomal protein (B), respectively (n=3 pooled from three independent experiments). (C and D) Human CTLs were cultured in medium containing 1.0% serum and treated with indicated HDACi for three days. Representative histogram plots and bar graphs indicate the phoshorylated levels of mTOR (C) and S6 ribosomal protein (D), respectively (data points represent four individual healthy donors) (E) Measurement of extracellular acidification rate (ECAR) for in vitro generated murine CTLs cultured with or without 2.5 mM pentanoate for three days. ECAR was measured under basal conditions and in response to glucose (10 mM), oligomycin (2 μM), and 2-deoxy-glucose (2-DG, 100 mM). One of three independent experiments is shown.

[2] = tested on: murine ROR1-recognizing CAR T lymphocytes; assay: murine ROR1-specific CAR T cells stimulated with HDACi, ELISA and flow cytometry; format: cell-based; settings: three days of stimulation
Protocol: (A) Experimental design for the analysis HDACi-treated ROR1-specific CD8^+ CAR T cells (CARROR1+HDAC). (B and C) The production of TNF-α and IFN-γ from CAR T cells was measured by ELISA and flow cytometry analysis after three days of stimulation with the indicated HDACi. (D) The surface expression of CD25 on CAR T cells was measured by flow cytometry analysis after three days of stimulation with the indicated HDACi (n=3 combined from 3 independent experiments). (E and F) After three days of pre-treatment with pentanoate, CD19t^+ ROR1-specific CAR T cells were transferred intraperitoneally (i.p) into mice bearing 5-days old PancROR1 tumors. In E, Tumor volume and tumor mass were analyzed (n=3 mice/group/experiment combined from 2 independent experiments). (F) The percentage and total cell number of transferred TNF-α and IFN-γ CD19t^+ ROR1-specific CART cells in the tumor tissue at day 14 after tumor inoculation are shown.

HDAC = assay: fluorogenic HDAC assay on CTL-derived cell lysates; format: biochemical, murine; settings: unstimulated CTLs set to 1.0
Protocol: (A) Experimental design for the treatment of CTLs with the water-soluble fraction of intestinal content derived from SPF or GF mice. (B and C) Frequencies of IFN-γ- and TNF-α-producing CTLs treated with the extract from luminal content derived from indicated organs. Representative results of two experiments are shown (n=3). (D) ELISA was performed to measure the secretion of TNF-α by CLTs treated as shown in (A). (E) Quantitative measurement of total SCFA amounts in fecal samples of SPF and GF mice (n=5). (F and G) The percentage of IFN-γ^+ TNF-α^+ CTLs treated with the indicated SCFAs for three days (n=3, one of three independent experiments is shown). (H) The secretion of TNF-α from CTLs treated with SCFAs was determined by ELISA (n=3, one of two independent experiments is shown). (I) The fluorogenic HDAC assay was applied to measure the HDAC inhibitory activity of SCFAs on CTLs. The value for unstimulated CTLs was arbitrarily set to 1.0. Four independent experiments were performed. (J and K) Representative contour plots (J) and bar graphs (K) showing the frequency of IFN-γ+ and TNF-α+ cells after pentanoate (2 mM) or VPA (0.5 mM) administration. Three similar experiments were performed. (L and M) The frequency of Eomes- and T-bet-expressing CTLs treated with pentanoate (2 mM) or VPA (0.5 mM) for three days was analyzed by flow cytometry (n=4). […]

mTOR [3] = assay: phosphorylation of mTOR and S6 in murine CTLs; format: cell-based; settings: pentanoate 2.5 mM, three days
Protocol: as §1

B16OVA melanoma cells = assay: adoptive transfer of pretreated OT-I CTLs into mice bearing s.c. B16OVA tumors; format: in vivo
[4] = tested on: ROR1-expressing Panc02 pancreatic tumor cells (PancROR1); assay: transfer of pretreated ROR1-specific CAR T cells into mice bearing s.c. PancROR1 tumors; format: in vivo
[5] = tested on: CD8+ cytotoxic T lymphocytes (CTLs); assay: murine CTLs cultivated under suboptimal conditions with SCFAs; cytokines and effector molecules by flow cytometry and ELISA; format: cell-based
Source text: It is known that the glycolytic metabolic pathway promotes IFN-γ expression and T cell effector function. […] We next investigated if acetylation of H4 was increased at CTL-characteristic loci (Ifnγ, Tbx21 and Eomes) after treatment of CTLs with pentanoate. […] Due to the high level of heterogeneity and plasticity within T lymphocytes, we next investigated possible effects of pentanoate on other CD8^+ T cell subtypes. […] To gain further insight into possible therapeutic strategies, we next investigated the impact of pentanoate on human CD8^+ T lymphocytes.
(A) Experimental design for the treatment of CTLs with the water-soluble fraction of intestinal content derived from SPF or GF mice. (B and C) Frequencies of IFN-γ- and TNF-α-producing CTLs treated with the extract from luminal content derived from indicated organs. Representative results of two experiments are shown (n=3). (D) ELISA was performed to measure the secretion of TNF-α by CLTs treated as shown in (A). (E) Quantitative measurement of total SCFA amounts in fecal samples of SPF and GF mice (n=5). (F and G) The percentage of IFN-γ^+ TNF-α^+ CTLs treated with the indicated SCFAs for three days (n=3, one of three independent experiments is shown). (H) The secretion of TNF-α from CTLs treated with SCFAs was determined by ELISA (n=3, one of two independent experiments is shown). (I) The fluorogenic HDAC assay was applied to measure the HDAC inhibitory activity of SCFAs on CTLs. The value for unstimulated CTLs was arbitrarily set to 1.0. Four independent experiments were performed. (J and K) Representative contour plots (J) and bar graphs (K) showing the frequency of IFN-γ+ and TNF-α+ cells after pentanoate (2 mM) or VPA (0.5 mM) administration. Three similar experiments were performed. (L and M) The frequency of Eomes- and T-bet-expressing CTLs treated with pentanoate (2 mM) or VPA (0.5 mM) for three days was analyzed by flow cytometry (n=4). (N) ChIP assay showing the acetylation of histone H4 at the promoter regions of Ifnγ and Eomes genes after 24 hours of treatment of CTLs with pentanoate. Data are from pooled chromatin of three mice.
Representative histogram plots (A) and bar graphs (B) are showing the frequency of Annexin V^+ cells. Three similar experiments were performed. (C) Representative effector molecule staining of CD8^+ T cells polarized under suboptimal CTL-inducing conditions, treated with pentanoate or TSA (10 nM Sigma-Aldrich) in presence of 2-DG (1 mM, Sigma-Aldrich) or rapamycin (100 nM, Sigma-Aldrich) for 3 days. Three independent experiments were performed. (D) Western blot analysis of H3Ac and H4Ac in CD8^+ T cells treated with SCFAs for 3 days. (E) Pan-H4Ac ChIP qPCR analysis for Tbx21 promoter accessibility in pentanoate-treated CTLs. Data are from pooled chromatin of three mice. (F and G) CD8^+ T cells isolated from WT and Tbx21^−/− mice were polarized under suboptimal CTL-inducing conditions in presence of increasing pentanoate concentrations. Representative contour plots (F) and bar graphs (G) show the frequency of IFN-γ+ and IL-17A^+ cells. Two similar experiments were performed. […]

SMILES: CCCCC(=O)O [pentanoate]
- phosphorylation level of S6 ribosomal protein (mTOR [1]): elevated the phosphorylation levels
- phosphorylation level of mTOR (mTOR [1]): elevated the phosphorylation levels
- TNF-α and IFN-γ production of CAR T cells [2]: enhanced
- expression of CD25 on CAR T cells [2]: enhanced
- HDAC activity of CTL-derived cell lysates (HDAC): strong reduction of HDAC activity
- phosphorylation level of S6 ribosomal protein (mTOR [3]): elevated the phosphorylation levels
- phosphorylation level of mTOR (mTOR [3]): elevated the phosphorylation levels
- tumor volume and weight (B16OVA melanoma cells; OT-I CTLs pretreated three days with pentanoate, transferred day 5 after tumor injection): decreased tumor volume and weight
- number of transferred cells expressing TNF-α and IFN-γ in tumors, draining LNs and spleen (B16OVA melanoma cells; day 10 after adoptive transfer, vs control OT-I CTLs): higher number
- tumor volume and weight ([4]; day 10 following administration of pentanoate-treated CAR T cells): significantly diminished
- frequency and number of IFN-γ+TNF-α+ CAR T cells in tumors ([4]; vs control CAR T lymphocytes): elevated frequency and number
- frequencies of TNF-α+ IFN-γ+ cells ([5]; CTLs, suboptimal conditions, SCFAs for three days): substantial increase
- secretion of TNF-α by CTLs ([5]; ELISA, CTLs treated with SCFAs): substantial increase
- secretion of IL-2 by CTLs ([5]; ELISA, indicated time points): robustly produced IL-2 in a prolonged manner
- production of IFN-γ by T-bet-deficient CTLs ([5]; Tbx21-/- vs WT, increasing pentanoate concentrations): partially defective production
- expression of TNF-α and IFN-γ in CTLs ([5]; pentanoate 2 mM or VPA 0.5 mM): potently enhanced
- CTL-related transcription factors T-bet and Eomes in CD8+ T cells ([5]; pentanoate 2 mM or VPA 0.5 mM, three days): strongly induced
- reversal of the effect on granzyme B+IFN-γ+ cells by rapamycin ([5]; rapamycin 100 nM co-treatment): could not be reversed
- percentage of CD25+IFN-γ+ cells in in vitro generated CTLs ([5]; three days): strongly enhanced
- percentages of granzyme B+IFN-γ+ CD8+ T cells ([5]; vs control CTLs, TSA 10 nM, 3 days): substantially enhanced
